Test results: US20260356804A1, “SODIUM CHANNEL BLOCKING COMPOUNDS, DERIVATIVES THEREOF, AND METHODS OF THEIR USE” (LATIGO BIOTHERAPEUTICS, INC., priority 2022, published 2026)
Read-outs that look alike come from different tables or passages of the source.

Target: T1, human Nav1.8/b3 (Homo sapiens, UniProt Q9Y5Y9)
T1 construct: expressed in transfected cells; host or cells: CHO
Experiment: Compound Profiling Human NaV1.8/β3 Cell Line—SyncroPatch384PE Assay (automated patch clamp, stably transfected CHO cells)
Type: cell-based
Conditions: Nav1.8/b3 CHO cells

[1] = P1 (IC50, resting state block), P1 measurement, resting state block, holding potential −120 mV, second set of compounds
[2] = P2 (IC50, inactivated state block), P2 measurement, inactivated state block, inactivation step −35 mV 10 sec, second set of compounds
[3] = P1 (IC50, resting state block), P1 measurement, resting state block, holding potential −120 mV, fourth set of compounds
[4] = P2 (IC50, inactivated state block), P2 measurement, inactivated state block, inactivation step −35 mV 10 sec, fourth set of compounds
[5] = P1 (IC50, resting state block), P1 measurement, resting state block, holding potential −120 mV, third set of compounds
[6] = P2 (IC50, inactivated state block), P2 measurement, inactivated state block, inactivation step −35 mV 10 sec, third set of compounds
[7] = P1 (IC50, resting state block), P1 measurement, resting state block, holding potential −120 mV, first set of compounds
[8] = P2 (IC50, inactivated state block), P2 measurement, inactivated state block, inactivation step −35 mV 10 sec, first set of compounds
[9] = P1 measurement, resting state block, holding potential −120 mV, third set of compounds, read-out: P1 (IC50, resting state block)
[10] = P2 measurement, inactivated state block, inactivation step −35 mV 10 sec, third set of compounds, read-out: P2 (IC50, inactivated state block)

T1 sequence (Q9Y5Y9 whole entry): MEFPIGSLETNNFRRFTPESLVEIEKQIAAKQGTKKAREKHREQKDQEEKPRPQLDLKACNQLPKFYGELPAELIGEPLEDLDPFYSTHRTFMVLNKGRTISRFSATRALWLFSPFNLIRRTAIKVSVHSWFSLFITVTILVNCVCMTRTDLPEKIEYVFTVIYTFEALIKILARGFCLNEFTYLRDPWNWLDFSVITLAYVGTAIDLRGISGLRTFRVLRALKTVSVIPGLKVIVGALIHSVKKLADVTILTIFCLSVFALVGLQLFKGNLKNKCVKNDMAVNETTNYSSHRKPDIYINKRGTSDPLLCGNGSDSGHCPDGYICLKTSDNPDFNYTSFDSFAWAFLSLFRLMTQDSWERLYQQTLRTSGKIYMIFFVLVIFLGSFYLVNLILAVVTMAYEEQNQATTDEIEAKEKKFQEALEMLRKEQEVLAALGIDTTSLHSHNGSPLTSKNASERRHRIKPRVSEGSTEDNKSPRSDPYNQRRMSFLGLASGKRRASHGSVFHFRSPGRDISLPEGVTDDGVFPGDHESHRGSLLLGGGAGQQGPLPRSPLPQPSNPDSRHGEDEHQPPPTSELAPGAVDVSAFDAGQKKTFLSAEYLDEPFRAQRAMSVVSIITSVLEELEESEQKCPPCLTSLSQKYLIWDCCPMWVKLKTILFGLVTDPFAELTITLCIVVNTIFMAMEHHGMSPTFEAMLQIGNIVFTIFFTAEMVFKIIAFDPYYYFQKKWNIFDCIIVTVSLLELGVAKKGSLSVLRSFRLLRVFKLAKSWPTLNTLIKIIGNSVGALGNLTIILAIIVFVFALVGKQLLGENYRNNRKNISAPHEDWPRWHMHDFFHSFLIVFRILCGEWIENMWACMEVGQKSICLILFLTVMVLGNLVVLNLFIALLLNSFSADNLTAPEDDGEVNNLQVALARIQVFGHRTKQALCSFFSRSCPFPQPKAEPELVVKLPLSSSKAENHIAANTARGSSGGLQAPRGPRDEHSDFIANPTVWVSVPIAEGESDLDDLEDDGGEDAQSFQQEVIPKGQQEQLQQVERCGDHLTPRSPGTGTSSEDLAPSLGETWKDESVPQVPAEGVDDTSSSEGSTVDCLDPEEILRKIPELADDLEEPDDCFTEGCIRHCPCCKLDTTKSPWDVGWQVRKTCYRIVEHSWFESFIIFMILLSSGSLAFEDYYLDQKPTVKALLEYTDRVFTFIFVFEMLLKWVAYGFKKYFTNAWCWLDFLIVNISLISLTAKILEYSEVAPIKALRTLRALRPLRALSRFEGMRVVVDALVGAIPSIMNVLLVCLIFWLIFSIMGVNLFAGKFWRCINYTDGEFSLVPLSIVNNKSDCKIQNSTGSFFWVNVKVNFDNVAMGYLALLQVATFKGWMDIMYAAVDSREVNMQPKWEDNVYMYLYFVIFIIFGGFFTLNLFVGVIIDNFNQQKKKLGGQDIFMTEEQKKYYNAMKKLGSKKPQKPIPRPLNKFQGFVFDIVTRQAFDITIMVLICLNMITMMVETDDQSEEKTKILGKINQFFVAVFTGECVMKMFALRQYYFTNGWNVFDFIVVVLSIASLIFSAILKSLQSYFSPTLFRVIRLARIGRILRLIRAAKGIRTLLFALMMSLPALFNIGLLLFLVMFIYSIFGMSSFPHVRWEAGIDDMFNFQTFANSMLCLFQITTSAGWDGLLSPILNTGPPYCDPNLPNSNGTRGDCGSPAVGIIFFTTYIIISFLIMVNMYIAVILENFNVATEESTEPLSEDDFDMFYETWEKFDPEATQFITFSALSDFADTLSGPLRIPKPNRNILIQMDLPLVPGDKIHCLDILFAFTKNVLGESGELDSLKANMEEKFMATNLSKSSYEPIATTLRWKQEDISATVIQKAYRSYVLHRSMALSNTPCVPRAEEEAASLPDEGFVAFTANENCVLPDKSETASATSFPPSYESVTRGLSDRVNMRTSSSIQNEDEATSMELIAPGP
T1 sequence (Q9NY72 23-215 partner): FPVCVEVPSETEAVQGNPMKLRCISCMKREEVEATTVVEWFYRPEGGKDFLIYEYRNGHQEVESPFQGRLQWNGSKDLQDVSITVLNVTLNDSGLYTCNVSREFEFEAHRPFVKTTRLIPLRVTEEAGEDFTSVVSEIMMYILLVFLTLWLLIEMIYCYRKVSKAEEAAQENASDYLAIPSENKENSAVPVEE

SMILES	IC50 [5] [nM]	IC50 [6] [nM]	IC50 [7] [nM]	IC50 [8] [nM]	other results
Cc1nc(F)ccc1Oc1cc(C(F)(F)F)c(Cl)cc1C(=O)Nc1cccc([S@@](C)(=O)=NC(=O)CN)c1 [Example 4B, (R)-5-chloro-2-((6-fluoro-2-methylpyridin-3-yl)oxy)-N-(3-(N-glycyl-S-methylsulfonimidoyl)phenyl)-4-(trifluoromethyl)benzamide]					IC50 [1]: < 5 nM; IC50 [2]: < 5 nM
Cc1nc(F)ccc1Oc1ncc(C(F)(F)F)c(C)c1C(=O)Nc1cccc([S@@](C)(=O)=NC(=O)C(N)C(F)(F)F)c1 (stereo partly drawn) [Example 11D, N-(3-((R)—N-(2-amino-3,3,3-trifluoropropanoyl)-S-methylsulfonimidoyl)phenyl)-2-((6-fluoro-2-methylpyridin-3-yl)oxy)-4-methyl-5-(trifluoromethyl)nicotinamide]					IC50 [3]: < 5 nM; IC50 [4]: < 5 nM
Cc1nc(F)ccc1Oc1ncc(C(F)(F)F)c(C)c1C(=O)Nc1ccnc([S@](C)(=N)=O)c1 (single isomer, unassigned) [Example 11C]	5 to 50	5 to 50			
Cc1nc(F)ccc1Oc1nnc(C(F)(F)F)c(C)c1C(=O)Nc1cccc(S(N)(=O)=O)c1 [Example 13C, 3-((6-fluoro-2-methylpyridin-3-yl)oxy)-5-methyl-N-(3-sulfamoylphenyl)-6-(trifluoromethyl)pyridazine-4-carboxamide]	< 5	< 5			
Cc1nc(F)ccc1Oc1ncc(C2CC2)c(C)c1C(=O)Nc1cccc([S@](C)(=N)=O)c1 [Example 12C, (R)-5-cyclopropyl-2-((6-fluoro-2-methylpyridin-3-yl)oxy)-4-methyl-N-(3-(S-methylsulfonimidoyl)phenyl)nicotinamide]	50 to 100	50 to 100			
Cc1nc(F)ccc1Oc1cc(C(F)(F)F)c(Cl)cc1C(=O)Nc1ccnc(C(N)=O)c1 [Example 72A]			< 5	< 5	
Cc1nc(F)ccc1Oc1cc(C(F)(F)F)c(Cl)c(C)c1C(=O)Nc1cccc([S@](C)(=N)=O)c1 [Example 10A, (R)-3-chloro-6-((6-fluoro-2-methylpyridin-3-yl)oxy)-2-methyl-N-(3-(S-methylsulfonimidoyl)phenyl)-4-(trifluoromethyl)benzamide]			< 5	< 5	
Cc1nc(F)ccc1Oc1ncc(C(F)(F)F)c(C)c1C(=O)Nc1cccc(S(N)(=O)=O)c1 [Example 8C, 2-((6-fluoro-2-methylpyridin-3-yl)oxy)-4-methyl-N-(3-sulfamoylphenyl)-5-(trifluoromethyl)nicotinamide]	< 5	< 5			
Cc1nc(F)ccc1Oc1cc(C2CC2)c(C(F)(F)F)c(C)c1C(=O)Nc1ccnc([S@@](C)(=N)=O)c1 [Example 38A]			< 5	< 5	
COc1ccc(Oc2ncc(C(F)(F)F)c(C)c2C(=O)Nc2cccc([S@@](C)(=N)=O)c2)c(C)n1 [Example 116C]	5 to 50	5 to 50			
Cc1nc(F)ccc1Oc1cc(C(F)(F)F)c(Cl)c(C)c1C(=O)Nc1ccnc([S@](C)(=N)=O)c1 [Example 65A]			< 5	< 5	
COc1cc(C#N)ccc1Oc1ncc(-c2cnn(C)c2)c(C)c1C(=O)Nc1cccc([S@](C)(=N)=O)c1 [Example 1C, (R)-2-(4-cyano-2-methoxyphenoxy)-4-methyl-5-(1-methyl-1H-pyrazol-4-yl)-N-(3-(S-methylsulfonimidoyl)phenyl)nicotinamide]	50 to 100	50 to 100			
Cc1nc(F)ccc1Oc1ccc(C(F)(F)F)c(F)c1C(=O)Nc1cccc([S@@](C)(=O)=NC(=O)[C@@H](C)N)c1 [Example 15B, N-(3-((R)—N-(D-alanyl)-S-methylsulfonimidoyl)phenyl)-2-fluoro-6-((6-fluoro-2-methylpyridin-3-yl)oxy)-3-(trifluoromethyl)benzamide]					IC50 [1]: < 5 nM; IC50 [2]: < 5 nM
Cc1nc(F)ccc1Oc1cc(C(F)(F)F)c(Cl)cc1C(=O)Nc1ccc(F)c([S@@](C)(=N)=O)c1 [Example 70A]			< 5	< 5	
COc1cc(C#N)ccc1Oc1ncc(-c2ccc(C#N)cc2)c(C)c1C(=O)Nc1cccc([S@](C)(=N)=O)c1 [Example 20C, (R)-2-(4-cyano-2-methoxyphenoxy)-5-(4-cyanophenyl)-4-methyl-N-(3-(S-methylsulfonimidoyl)phenyl)nicotinamide]	5 to 50	5 to 50			
Cc1nc(F)ccc1Oc1ncc(-c2ccc3c(c2)OCCO3)c(C)c1C(=O)Nc1cccc([S@](C)(=N)=O)c1 [Example 4C, (R)-5-(2,3-dihydrobenzo[b][1,4]dioxin-6-yl)-2-((6-fluoro-2-methylpyridin-3-yl)oxy)-4-methyl-N-(3-(S-methylsulfonimidoyl)phenyl)nicotinamide]	5 to 50	5 to 50			
Cc1nc(F)ccc1Oc1cc(C(F)(F)F)c(Cl)cc1C(=O)NC12CC(C(N)=O)(C1)C2 [Example 63A]			> 200	> 200	

SMILES	IC50 [5] [nM]	IC50 [6] [nM]	IC50 [7] [nM]	IC50 [8] [nM]	other results
COc1cc(C#N)ccc1Oc1cc(C(F)(F)F)nnc1C(=O)Nc1cccc(S(C)(=O)=O)c1 [Example 38C, 4-(4-cyano-2-methoxyphenoxy)-N-(3-(methylsulfonyl)phenyl)-6-(trifluoromethyl)pyridazine-3-carboxamide]	> 200	100 to 200			
COc1cc(C#N)ccc1Oc1ncc(-c2ccc(C)cn2)c(C)c1C(=O)Nc1cccc([S@](C)(=N)=O)c1 [Example 22C, (R)-6-(4-cyano-2-methoxyphenoxy)-4,5-dimethyl-N-(3-(S-methylsulfonimidoyl)phenyl)-[2,3-bipyridine]-5-carboxamide]					IC50 [9]: 50 to 100 nM; IC50 [10]: 50 to 100 nM
Cc1nc(F)ccc1Oc1ccc(C(F)(F)F)c(C)c1C(=O)Nc1cccc([S@@](C)(=O)=NC(=O)[C@H](C)O)c1 [Example 23B]					IC50 [1]: < 5 nM; IC50 [2]: < 5 nM
Cc1nc(O)ccc1Oc1ncc(C(F)(F)F)c(C)c1C(=O)Nc1cccc([S@](C)(=N)=O)c1 [Example 117C]	> 200	> 200			
Cc1nc(F)ccc1Oc1ccc(C(F)(F)F)c(F)c1C(=O)Nc1cccc([S@@](C)(=O)=NC(=O)[C@@H]2CCCN2)c1 [Example 21B, (S)—N—((R)-(3-(2-fluoro-6-((6-fluoro-2-methylpyridin-3-yl)oxy)-3-(trifluoromethyl)benzamido)phenyl)(methyl)(oxo)-λ^6-sulfaneylidene)pyrrolidine-2-carboxamide]					IC50 [1]: 5 to 50 nM; IC50 [2]: 5 to 50 nM
Cc1nc(F)ccc1Oc1cc(C(F)(F)F)c(Cl)cc1C(=O)Nc1cccc([S@](C)(=N)=O)c1 [Example 1A, (R)-5-chloro-2-((6-fluoro-2-methylpyridin-3-yl)oxy)-N-(3-(S-methylsulfonimidoyl)phenyl)-4-(trifluoromethyl)benzamide]			< 5	< 5	
Cc1nc(F)ccc1Oc1ncc(C(F)(F)F)c(C)c1C(=O)Nc1ccnc(C(N)=O)c1 [Example 120C]					IC50 [9]: 5 to 50 nM; IC50 [10]: 5 to 50 nM
Cc1nc(F)ccc1Oc1ncc(C(F)(F)F)c(C)c1C(=O)Nc1ccc(C(N)=O)cc1 [Example 118C]	< 5	< 5			
Cc1nc(F)ccc1Oc1ncc(C2CCC2)c(C)c1C(=O)Nc1ccnc([S@](C)(=N)=O)c1 [Example 98C]	5 to 50	5 to 50			
Cc1nc(F)ccc1Oc1nnc(C(F)(F)F)c(C)c1C(=O)Nc1cccc([S@@](C)(=O)=NC(=O)[C@H](C)O)c1 [Example 18D, 3-((6-fluoro-2-methylpyridin-3-yl)oxy)-N-(3-((R)—N—((S)-2-hydroxypropanoyl)-S-methylsulfonimidoyl)phenyl)-5-methyl-6-(trifluoromethyl)pyridazine-4-carboxamide]					IC50 [3]: < 5 nM; IC50 [4]: < 5 nM
Cc1nc(F)ccc1Oc1cc(C(F)(F)F)c(Cl)c(C)c1C(=O)Nc1cccc([S@@](C)(=N)=O)c1 [Example 66A]			< 5	< 5	
CCCc1cnc(Oc2ccc(F)nc2C)c(C(=O)Nc2cccc([S@](C)(=N)=O)c2)c1C [Example 103C]	50 to 100	50 to 100			
Cc1nc(F)ccc1Oc1cc(C2CC2)c(C(F)(F)F)cc1C(=O)Nc1ccnc([S@@](C)(=N)=O)c1 [Example 57A]			< 5	5 to 50	
Cc1nc(F)ccc1Oc1ncc(C(F)(F)F)c(C)c1C(=O)Nc1cccc([S@@](C)(=O)=NC(=O)[C@H]2CCOC2)c1 [Example 15D, 2-((6-fluoro-2-methylpyridin-3-yl)oxy)-4-methyl-N-(3-((R)—S-methyl-N—((S)-tetrahydrofuran-3-carbonyl)sulfonimidoyl)phenyl)-5-(trifluoromethyl)nicotinamide]					IC50 [3]: < 5 nM; IC50 [4]: < 5 nM
Cc1nc(F)ccc1Oc1cc(C(F)(F)F)c(Cl)c(F)c1C(=O)NC12CC(C(N)=O)(C1)C2 [Example 47A]			> 200	> 200	
Cc1nc(F)ccc1Oc1cc(C2CC2)c(C(F)(F)F)cc1C(=O)Nc1cccc([S@@](C)(=N)=O)c1 [Example 59A]			< 5	< 5	
Cc1nc(F)ccc1Oc1nnc(C(F)(F)F)c(C)c1C(=O)Nc1cccc([S@](C)(=N)=O)c1 [Example 9C, (R)-3-((6-fluoro-2-methylpyridin-3-yl)oxy)-5-methyl-N-(3-(S-methylsulfonimidoyl)phenyl)-6-(trifluoromethyl)pyridazine-4-carboxamide]	50 to 100	50 to 100			
